How the values were obtained:
hCXCR4 = hCXCR4 (Homo sapiens, UniProt P61073); test: CXCL12^AF647 competition binding, Jurkat cells
Description: Binding affinity to human (h)CXCR4 and human (h)ACKR3 was investigated with a competition binding assay using CXCL12^AF647 (Almac, UK) as the tracer molecule. Jurkat cells (human T lymphocytic cell line, hCXCR4 positive) or U87.CD4.ACKR3 cells (human glioblastoma cell line, hACKR3 positive) were resuspended in assay buffer [Hank’s Balanced Salt Solution (HBSS, Thermo Fisher Scientific), 20 mM HEPES buffer, 0.2% bovine serum albumin (Sigma-Aldrich), pH 7.4] at 3 × 10^5 cells per sample and treated with increasing concentrations of compound at RT for 15 min. A fixed amount of CXCL12^AF647 (2.9 nM and 1.45 nM in case of hCXCR4 and hACKR3, respectively) was added and cells were incubated at RT for 30 min protected from light. Cells were finally fixed in 1% paraformaldehyde in DPBS and the CXCL12^AF647 binding signal [i.e., mean fluorescence intensity (MFI)] was quantified by flow cytometry (FACSCanto™; Becton Dickinson). Data were analyzed with FlowJo® Software. For all samples the background MFI (i.e., autofluorescence of untreated and unlabeled cells) was subtracted. The percentage inhibition for each compound concentration was calculated relative to the positive control (i.e., untreated cells exposed to CXCL12^AF647 only). Four parameter non-linear curve fitting (GraphPad Prism 9.0.2) was used to determine the IC50 value for binding inhibition.

[1] = system: bleomycin-induced lung fibrosis in C57BL/6J mice; test: Bleomycin-induced lung fibrosis model; assay type: in vivo, mouse; conditions: 15 mg/kg/dose SC BID, day 21, vs bleomycin + 23% HPBCD
Description: A preclinical mouse model for bleomycin-induced lung fibrosis was performed at the Department of Metabolic Health Research, The Netherlands Organisation for Applied Scientific Research (TNO) (Leiden, The Netherlands). Thirty-eight male C57BL/6J mice were matched on body weight prior to the study and divided into three groups (experimental study design, Supplementary Figure S1b). At day 0, 10–12-week-old mice received a single oropharyngeal administration of bleomycin (0.04U/mouse) (group 2 and 3). Control mice (group 1) received phosphate buffered saline (PBS) instead. At day 0, bleomycin-treated mice received either compound 18a (15 mg/kg/dose, subcutaneous, twice daily, group 3), or its corresponding vehicle control (23% HPBCD, subcutaneous, twice daily, group 2)]. PBS-treated mice received 23% HPBCD throughout the study (subcutaneous, twice daily, group 1). At day 21, mice were sacrificed under isoflurane anesthesia and plasma samples and lung lobes were collected. As a primary endpoint the histology lung fibrosis score (modified Ashcroft score) was used based on a Masson’s Trichrome staining on cross-sections of the left lung lobe. As a secondary endpoint collagen content (hydroxyproline) was analyzed on the medial and accessory lobes by using a chromogenic assay according to the manufacturer’s instructions (QuickZyme Biosciences, Leiden, the Netherlands).

[2] = system: fibrosis-related genes (liver mRNA); test: nCounter analysis of 52 fibrosis-related genes in liver RNA; assay type: in vivo, mouse
Description: Total RNA was prepared from snap-frozen liver tissue (the lateral and medial right lobes and the caudate lobe; Supplementary Figure S1a) or lung tissue (cranial right lobe; Supplementary Figure S1b) after homogenization on ice in TRIZol. For quantitative qRT-PCR, cDNA was made from 0.5 μg of RNA using the GoScript reverse transcription system (Promega) according to the manufacturer's protocol. QRT-PCR was performed (for 40 cycles) with the Quantstudio3 Applied Biosystems (ABI) system using Sybr green (ABI) followed by melting curve analysis. Expression was calculated using the delta threshold cycle (ΔCT) method with Gapdh as reference gene (previously validated as stable house-keeping gene in the CCl4 model and in the bleomycin model, current study, not shown). Forward (F) and reverse (R) primer sequences were (5'-3'): […]; Col1a1: [NT]; Ackr3: [NT]; Cxcr4: [NT]; Golm1: [NT]; Lgals3: [NT]; Unc93b1: [NT]; Slc15a3: [NT]; Sec24d: [NT]; Cxcl10: [NT]; and […] Data are expressed as mean ± sem. For NanoString nCounter (NanoString, USA) analysis on liver RNA, a custom-designed panel of 52 fibrosis-related probes was used (the Nanostring probe list is shown in Supplementary Table 1). 100-500 ng of total RNA was hybridized according to the manufacturer's instructions. Data were normalized by scaling to a panel of four housekeeping genes (i.e., Hprt1, Actb, Ldh, Tbp; probes are listed in Supplementary Table 1) with a coefficient of variation of < 5% between conditions used for comparison. The scaled counts were base log2-transformed and data were expressed as fold-change versus the reference condition (CCl4 + 23% HPBCD). […] The resulting P-values were corrected for multiple testing with Benjamini-Hochberg to control the false discovery rate. P < 0.05 was considered as significant.

[3] = liver d28, CCl4 + compound 18a vs. CCl4 + 23% HPBCD

Sequence of hCXCR4 (P61073 whole entry): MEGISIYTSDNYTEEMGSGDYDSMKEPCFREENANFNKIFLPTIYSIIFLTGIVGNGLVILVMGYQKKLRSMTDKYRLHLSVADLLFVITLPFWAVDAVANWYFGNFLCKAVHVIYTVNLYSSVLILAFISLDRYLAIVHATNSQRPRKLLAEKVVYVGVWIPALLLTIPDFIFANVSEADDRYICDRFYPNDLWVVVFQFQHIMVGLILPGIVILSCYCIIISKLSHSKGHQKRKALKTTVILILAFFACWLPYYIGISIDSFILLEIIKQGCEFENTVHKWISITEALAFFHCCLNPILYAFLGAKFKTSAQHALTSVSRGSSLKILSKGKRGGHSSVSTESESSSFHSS

IC50 (hCXCR4): > 4 µM
SMILES: CCc1ccn2ccnc2c1N1CCCN(C(CC(N)=O)C2CCN(C(=O)C3CC4CCC3O4)CC2)CC1 (stereo not drawn) [compound 18a]
development of lung fibrosis (modified Ashcroft score, hydroxyproline) [1]: did not counteract the development of fibrosis
number of the 52 fibrosis-related genes with significantly affected expression ([2]; CCl4-challenged livers, day 28): 8
Fold change Adamts2 mRNA [2, 3]: 1.15
Fold change Anxa3 mRNA [2, 3]: 0.85
Fold change Arhgap25 mRNA [2, 3]: 0.87
Fold change Arl11 mRNA [2, 3]: 1.09
Fold change Arpc1b mRNA [2, 3]: 1.04
Fold change Axl mRNA [2, 3]: 0.96
Fold change C1qb mRNA [2, 3]: 0.92
Fold change Capg mRNA [2, 3]: 0.85
Fold change Ccr2 mRNA [2, 3]: 0.96
Fold change Ccr5 mRNA [2, 3]: 0.86
Fold change Ccr9 mRNA [2, 3]: 1.04
Fold change Cd68 mRNA [2, 3]: 0.90
Fold change Cd86 mRNA [2, 3]: 0.88
Fold change Clec4n mRNA [2, 3]: 0.77
Fold change Clec7a mRNA [2, 3]: 1.13
Fold change Col3a1 mRNA [2, 3]: 1.40
Fold change Col4a2 mRNA [2, 3]: 0.92
Fold change Col5a1 mRNA [2, 3]: 0.84
Fold change Cxcl10 mRNA [2, 3]: 0.74
Fold change Cxcl16 mRNA [2, 3]: 1.03
Fold change Eln mRNA [2, 3]: 1.25
Fold change Enc1 mRNA [2, 3]: 1.09
Fold change Fxyd5 mRNA [2, 3]: 0.96
Fold change Gdf15 mRNA [2, 3]: 1.12
Fold change Golm1 mRNA [2, 3]: 1.46
Fold change Il1rn mRNA [2, 3]: 0.76
Fold change Laptm5 mRNA [2, 3]: 0.90
Fold change Lgals3 mRNA [2, 3]: 0.58
Fold change Lilrb4 mRNA [2, 3]: 0.94
Fold change Lox mRNA [2, 3]: 1.24
Fold change Loxl2 mRNA [2, 3]: 1.01
Fold change Ly86 mRNA [2, 3]: 1.15
Fold change Mmp9 mRNA [2, 3]: 1.13
Fold change Ms4a6a mRNA [2, 3]: 1.20
Fold change Myo1f mRNA [2, 3]: 0.90
Fold change Nckap1l mRNA [2, 3]: 0.97
Fold change Pld4 mRNA [2, 3]: 0.93
Fold change Plod2 mRNA [2, 3]: 1.13
Fold change Rassf4 mRNA [2, 3]: 0.93
Fold change Sdcbp mRNA [2, 3]: 1.08
Fold change Sec24d mRNA [2, 3]: 1.22
Fold change Serpine1 mRNA [2, 3]: 0.22
Fold change Sla mRNA [2, 3]: 1.00
Fold change Slc11a1 mRNA [2, 3]: 0.88
Fold change Slc15a3 mRNA [2, 3]: 0.81
Fold change Tgfb1 mRNA [2, 3]: 0.90
Fold change Thbs2 mRNA [2, 3]: 1.03
Fold change Timp1 mRNA [2, 3]: 1.09
Fold change Tnc mRNA [2, 3]: 0.84
Fold change Trem2 mRNA [2, 3]: 1.44
Fold change Unc93b1 mRNA [2, 3]: 0.81

Source: PMC9106635, “Stimulation of the atypical chemokine receptor 3 (ACKR3) by a small-molecule agonist attenuates fibrosis in a preclinical liver but not lung injury model” (Cellular and Molecular Life Sciences: CMLS, 2022)
